Results taken from PMC4402537, “mRNA maturation in giant viruses: variation on a theme” (Nucleic Acids Research, 2015).

Columns and labels:
Mg561 (H6c-Mg561) [1] = target: T1, Mg561 (H6c-Mg561) (Megavirus chiliensis, UniProt G5CT11); assay: in vitro polyU tailing of […]-labelled 20-mer RNA, urea-PAGE; format: biochemical; settings: 100 μM UTP in place of ATP, Mn2+ (similar with Mg2+), pH 7.5, 30°C
T1 construct: gene mchi_555; full length, N-terminal His6 tag removed by HRV 3C protease; E. coli Rosetta (DE3)
T1 sequence (G5CT11 1-531): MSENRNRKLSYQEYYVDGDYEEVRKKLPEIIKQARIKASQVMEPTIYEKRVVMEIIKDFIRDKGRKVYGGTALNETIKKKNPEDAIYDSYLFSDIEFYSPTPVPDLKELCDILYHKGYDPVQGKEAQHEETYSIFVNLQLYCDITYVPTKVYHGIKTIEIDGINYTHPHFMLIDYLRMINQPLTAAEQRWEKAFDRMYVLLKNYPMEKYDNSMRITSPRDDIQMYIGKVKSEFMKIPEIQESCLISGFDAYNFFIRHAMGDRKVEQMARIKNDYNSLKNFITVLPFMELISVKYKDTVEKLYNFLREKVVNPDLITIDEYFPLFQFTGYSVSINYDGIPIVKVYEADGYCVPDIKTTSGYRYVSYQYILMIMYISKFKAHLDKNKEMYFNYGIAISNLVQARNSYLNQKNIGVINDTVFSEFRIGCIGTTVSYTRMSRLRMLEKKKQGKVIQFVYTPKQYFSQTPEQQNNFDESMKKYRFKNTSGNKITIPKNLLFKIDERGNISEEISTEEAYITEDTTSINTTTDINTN

Mg561 (H6c-Mg561) [2] = target: T1, Mg561 (H6c-Mg561); assay: in vitro polyadenylation of […]-labelled 20-mer RNA, urea-PAGE; format: biochemical; settings: 100 μM ATP, 5 mM MgCl2 or 0.5 mM MnCl2, pH 7.5, 30°C
R341 (H6c-R341) = target: T2, R341 (H6c-R341) (Acanthamoeba polyphaga mimivirus, UniProt Q5UQS6); settings: 100 μM ATP, 5 mM MgCl2 or 0.5 mM MnCl2, pH 7.5, 30°C
T2 construct: gene MIMI_R341

[3] = target: Mimivirus polyA polymerase R341, after tag removal (H6c-R341) (Mimivirus); assay: SEC; gel filtration of purified proteins, GE Healthcare markers for calibration
Mg18 (H6c+Mg18) = target: T3, Mg18 (H6c+Mg18) (Megavirus chiliensis, UniProt G5CQI9); assay: methyl transfer from 3H-AdoMet to RNA, DEAE filter binding; format: biochemical; settings: 10 μM AdoMet, GpppAN13, 7MeGpppAN13 or poly(A) RNA 0.7 μM, 1 mM MgCl2, pH 7.5, 30°C; labelled compound
T3 construct: gene mchi_21; full length, N-terminal His6 tag kept; E. coli Rosetta (DE3)
T3 sequence (G5CQI9 1-340): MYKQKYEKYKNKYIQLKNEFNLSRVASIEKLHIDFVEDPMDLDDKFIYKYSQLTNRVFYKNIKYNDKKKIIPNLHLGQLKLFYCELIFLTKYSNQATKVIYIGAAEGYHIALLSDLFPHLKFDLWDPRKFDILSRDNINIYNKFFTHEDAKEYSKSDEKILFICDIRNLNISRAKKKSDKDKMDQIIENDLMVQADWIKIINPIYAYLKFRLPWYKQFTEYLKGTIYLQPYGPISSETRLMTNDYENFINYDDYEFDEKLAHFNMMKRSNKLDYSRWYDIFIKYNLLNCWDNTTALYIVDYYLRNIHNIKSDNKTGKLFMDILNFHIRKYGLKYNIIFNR

[4] = target: Megavirus chilensis polyA polymerase Mg561, after tag removal (H6c-Mg561) (Megavirus chilensis); assay: SEC; gel filtration of purified proteins, GE Healthcare markers for calibration
[5] = target: Megavirus chilensis Mg18 protein with N-terminal His6 tag (H6c+Mg18) (Megavirus chilensis); assay: BLI

## O=c1ccn([C@@H]2O[C@H](COP(=O)(O)OP(=O)(O)OP(=O)(O)O)[C@@H](O)[C@H]2O)c(=O)[nH]1 [UTP]
Mg561 (H6c-Mg561) [1]
  in vitro polyU tailing of 32P-labelled 20-mer RNA, urea-PAGE: Mg561 was also able to add long polyU tails, although with a reduced activity

## Nc1ncnc2c1ncn2[C@@H]1O[C@H](COP(=O)(O)OP(=O)(O)OP(=O)(O)O)[C@@H](O)[C@H]1O [ATP]
Mg561 (H6c-Mg561) [2]
  in vitro polyadenylation of 32P-labelled 20-mer RNA, urea-PAGE: synthesize long products, apparently proccessively, derived from the RNA and ATP
R341 (H6c-R341)
  in vitro polyadenylation of 32P-labelled 20-mer RNA, urea-PAGE: synthesize long products, apparently proccessively, derived from the RNA and ATP

## Mimivirus polyA polymerase R341, after tag removal (H6c-R341) (enzyme)
[3]
  stoichiometry N: 2

## C[S+](CC[C@H](N)C(=O)O)C[C@H]1O[C@@H](n2cnc3c(N)ncnc32)[C@H](O)[C@@H]1O (stereo partly shown) [AdoMet]
Mg18 (H6c+Mg18)
  methyl transfer from 3H-AdoMet to RNA, DEAE filter binding: Mg18 had comparable activity with 7MeGpppAN13 and GpppAN13

## Megavirus chilensis polyA polymerase Mg561, after tag removal (H6c-Mg561) (enzyme)
[4]
  stoichiometry N: 2
[5]
  Kd: 6.2 µM
